Measured values taken from US5281602A, “Angiotensin II receptor blocking 2,3,6-substituted 5,6,7,8-tetrahydro-pyrido[4,3-D]pyrimidin-4(3H)-ones” (American Cyanamid Company, priority 1993, dated 1994).
pIC50: −log10 of the molar value. Several values for one entry are separate records, joined by “and”; a condition that tells them apart may be missing. Equal values may be shown once.

Experiments:
[1] = test system: ANGIOTENSIN II (A11) VASOPRESSOR RESPONSE; experiment: AII Challenge: blockade of angiotensin II vasopressor response in conscious SHR; type: in vivo, rat (Conscious Male Okamoto-Aoki SHR); conditions: for Change (single reading, systolic blood pressure) / Response After A11 (systolic blood pressure) / Control Before A11 (systolic blood pressure): 15 mg/kg
Excerpt: By administering a compound of this invention to a rat, and then challenging with angiotensin II, a blockage of the vasopressor response is realized.
Conscious Male Okamoto-Aoki SHR, 16-20 weeks old, weighing approximately 330 g are purchased from Charles River Labs (Wilmington, Mass.). Conscious rats are restrained in a supine position with elastic tape. The area at the base of the tail is locally anesthetized by subcutaneous infiltration with 2% procaine. The ventral caudal artery and vein are isolated, and a cannula made of polyethylene (PE) 10-20 tubing (fused together by heat) is passed into the lower abdominal aorta and vena cava, respectively. The cannula is secured, heparinized (1,000 I.U./ml), sealed and the wound is closed. The animals are placed in plastic restraining cages in an upright position. The cannula is attached to a Statham P23Db pressure transducer, and pulsatile blood pressure is recorded to 10-15 minutes with a Gould Brush recorder. (Chan et al., (Drug Development Res., 18:75-94, 1989).
Angiotensin II (human sequence, Sigma Chem. Co., St. Louis, Mo.) of 0.05 and 0.1 ug/kg i.v. is injected into all rats (predosing response). Then a test compound, vehicle or a known angiotensin II antagonist is administered i.v., i.p. or orally to each set of rats. […] The vasopressor response of angiotensin II is measured for the increase in systolic blood pressure in mmHg. The percentage of antagonism or blockade of the vasopressor response of angiotensin II by a compound is calculated using the vasopressor response (increase in systolic blood pressure) of angiotensin II of each rat predosing the compound as 100%. A compound is considered active if at 30 mg/kg i.v. it antagonized at least 50% of the response.

[2] = target: Angiotension II Receptor; experiment: Receptor Binding Assay: competition with [^125 I] (Sar^1,Ile^8) AngII on microsomal membranes; conditions: pH 7.4, 60 min, room temperature
Experimental: Binding of [^125 I] (Sar^1,Ile^8) AngII
The binding of [^125 I] (Sar^1,Ile^8) AngII to microsomal membranes is initiated by the addition of reconstituted membranes (1:10 vols.) in freshly made 50.0 mMTris.HCl buffer, pH 7.4 containing 0.25% heat inactivated bovine serum albumin (BSA):80 ul membrane protein (10 to 20 ug/assay) to wells already containing 100 ul of incubation buffer (as described above) and 20 ul [^125 I] (Sar^1,Ile^8) AngII (Specific Activity, 2200 Ci/mmole). Non-specific binding is measured in the presence of 1.0 uM unlabeled (Sar^1,Ile^8) AngII, added in 20 ul volume. Specific binding for [^125 I] (Sar^1,Ile^8) AngII is greater than 90%. In competition studies, experimental compounds are diluted in dimethylsulfoxide (DMSO) and added in 20 ul to wells before the introduction of tissue membranes. This concentration of DMSO is found to have no negative effects on the binding of [^125 I] (Sar^1,Ile^8) AngII to the membranes. Assays are performed in triplicate. […] Presoaking the filter sheet in 0.1% polyethylenemine in normal saline (PEI/Saline) greatly reduces the radioactivity retained by the filter blanks. […] The filters are removed from the filter grid and counted in a Parkard® Cobra Gamma Counter for 1 min. […] The binding data are analyzed by the non-linear interactive "LUNDON-1" program (LUNDON SOFTWARE Inc., Cleveland, Ohio U.S.A.). […]

[3] = 15 mg/kg IV (single), AII 0.05 mcg/kg IV, 120 min post dose
[4] = 15 mg/kg IV (single), AII 0.05 mcg/kg IV, 180 min post dose
[5] = 15 mg/kg IV (single), AII 0.1 mcg/kg IV, 120 min post dose
[6] = 15 mg/kg IV (single), AII 0.1 mcg/kg IV, 180 min post dose
[7] = 15 mg/kg IV, AII 0.05 mcg/kg IV, 30 min post dose
[8] = 15 mg/kg IV, AII 0.05 mcg/kg IV, 60 min post dose
[9] = 15 mg/kg IV, AII 0.05 mcg/kg IV, 90 min post dose
[10] = 15 mg/kg IV, AII 0.1 mcg/kg IV, 30 min post dose
[11] = 15 mg/kg IV, AII 0.1 mcg/kg IV, 60 min post dose
[12] = 15 mg/kg IV, AII 0.1 mcg/kg IV, 90 min post dose

With `CCCCc1nc2c(c(=O)n1Cc1ccc(-c3ccccc3-c3nnn[nH]3)cc1)CN(C(=O)C(C)(C)O)CC2` [Example 16] the “Average % Inhibition (angiotensin blockage) of AII vasopressor response” value (“Average % Inhibition” for short) [1, 3] was 39%, the “Average Change (systolic blood pressure response to AII)” value (shortened to “Average Change”) [1, 3] was 27.5 mmHg and the “Change (single reading, systolic blood pressure)” value [1, 3] was 35 mmHg and 20 mmHg. For the same compound, the “Average % Inhibition” value [1, 4] was 6%, the “Average Change” value [1, 4] was 42.5 mmHg and the “Change (single reading, systolic blood pressure)” value [1, 4] was 55 mmHg and 30 mmHg. For the same compound, the “Average % Inhibition” value [1, 5] was 35%, the “Average Change” value [1, 5] was 32.5 mmHg and the “Change (single reading, systolic blood pressure)” value [1, 5] was 40 mmHg and 25 mmHg. The “Average % Inhibition” value [1, 6] was 5%, the “Average Change” value [1, 6] was 47.5 mmHg and the “Change (single reading, systolic blood pressure)” value [1, 6] was 50 mmHg and 45 mmHg. For the same compound, the “Response After A11 (systolic blood pressure)” value (shortened to “Response After A11”) ([1]; 15 mg/kg IV (single), after AII 0.05 mcg/kg IV, 120 min post dose) was 245 mmHg and 195 mmHg, the “Response After A11” value ([1]; 15 mg/kg IV (single), after AII 0.05 mcg/kg IV, 180 min post dose) was 230 mmHg and 195 mmHg and the “Response After A11” value ([1]; 15 mg/kg IV (single), after AII 0.1 mcg/kg IV, 120 min post dose) was 240 mmHg and 200 mmHg. The “Response After A11” value ([1]; 15 mg/kg IV (single), after AII 0.1 mcg/kg IV, 180 min post dose) was 260 mmHg and 210 mmHg, the “Control Before A11 (systolic blood pressure)” value (shortened to “Control Before A11”) ([1]; 15 mg/kg IV (single), before AII 0.05 mcg/kg IV, 120 min post dose) was 210 mmHg and 175 mmHg and the “Control Before A11” value ([1]; 15 mg/kg IV (single), before AII 0.05 mcg/kg IV, 180 min post dose) was 175 mmHg and 165 mmHg. The “Control Before A11” value ([1]; 15 mg/kg IV (single), before AII 0.1 mcg/kg IV, 120 min post dose) was 200 mmHg and 175 mmHg, the “Control Before A11” value ([1]; 15 mg/kg IV (single), before AII 0.1 mcg/kg IV, 180 min post dose) was 210 mmHg and 165 mmHg and the “Average % Inhibition” value [1, 7] was 72%. For the same compound, the “Average Change” value [1, 7] was 12.5 mmHg, the “Change (single reading, systolic blood pressure)” value [1, 7] was 15 mmHg and 10 mmHg and the “Average % Inhibition” value [1, 8] was 67%. For the same compound, the “Average Change” value [1, 8] was 15 mmHg, the “Average % Inhibition” value [1, 9] was 37% and the “Average Change” value [1, 9] was 28.5 mmHg. For the same compound, the “Average % Inhibition” value [1, 10] was 85%, the “Average Change” value [1, 10] was 7.5 mmHg and the “Change (single reading, systolic blood pressure)” value [1, 10] was 10 mmHg and 5 mmHg. For the same compound, the “Average % Inhibition” value [1, 11] was 57%, the “Average Change” value [1, 11] was 21.5 mmHg and the “Average % Inhibition” value [1, 12] was 33%. For the same compound, the “Average Change” value [1, 12] was 33.5 mmHg, the “Change (single reading, systolic blood pressure)” value [1, 12] was 42 mmHg and 25 mmHg and the “Response After A11” value ([1]; 15 mg/kg IV, after AII 0.05 mcg/kg IV, 30 min post dose) was 210 mmHg and 185 mmHg. The “Response After A11” value ([1]; 15 mg/kg IV, after AII 0.05 mcg/kg IV, 60 min post dose) was 215 mmHg and 190 mmHg, the “Response After A11” value ([1]; 15 mg/kg IV, after AII 0.05 mcg/kg IV, 90 min post dose) was 225 mmHg and 190 mmHg and the “Response After A11” value ([1]; 15 mg/kg IV, after AII 0.1 mcg/kg IV, 30 min post dose) was 205 mmHg and 180 mmHg. The “Response After A11” value ([1]; 15 mg/kg IV, after AII 0.1 mcg/kg IV, 60 min post dose) was 220 mmHg and 188 mmHg, the “Response After A11” value ([1]; 15 mg/kg IV, after AII 0.1 mcg/kg IV, 90 min post dose) was 230 mmHg and 195 mmHg and the “Control Before A11” value ([1]; 15 mg/kg IV, before AII 0.05 mcg/kg IV, 30 min post dose) was 195 mmHg and 175 mmHg. For the same compound, the “Control Before A11” value ([1]; 15 mg/kg IV, before AII 0.05 mcg/kg IV, 60 min post dose) was 190 mmHg and 185 mmHg, the “Control Before A11” value ([1]; 15 mg/kg IV, before AII 0.05 mcg/kg IV, 90 min post dose) was 183 mmHg and 175 mmHg and the “Control Before A11” value ([1]; 15 mg/kg IV, before AII 0.1 mcg/kg IV, 30 min post dose) was 195 mmHg and 175 mmHg. For the same compound, the “Control Before A11” value ([1]; 15 mg/kg IV, before AII 0.1 mcg/kg IV, 60 min post dose) was 190 mmHg and 175 mmHg, the “Control Before A11” value ([1]; 15 mg/kg IV, before AII 0.1 mcg/kg IV, 90 min post dose) was 188 mmHg and 170 mmHg and the pIC50 [2] was 6.22.
